Laboratory results: patent publication US11642337B2, “Therapeutic agent for mental retardation or autism” (TOKYO METROPOLITAN INSTITUTE OF MEDICAL SCIENCE, priority 2017, dated 2023)

What was measured:
Type in all cases: in vivo, mouse
Tsc2^+/− mice = assay: Contextual fear discrimination test in Tsc2+/- mice (memory impairment of tuberous sclerosis); conditions: 40 mg/kg orally, single administration six hours before FS, measured on the next day in the same box, vs vehicle group
Method: Tsc2^+/− mice were prepared by breeding/crossing according to a known method (Kobayashi, T., et al., Renal carcinogenesis, hepatic hemangiomatosis, and embryonic lethality caused by a germ-line Tsc2 mutation in mice. Cancer Res, 1999. 59(6): p. 1206-11).
A contextual fear discrimination test (Auerbach, B. D., E. K. Osterweil, and M. F. Bear, Mutations causing syndromic autism define an axis of synaptic pathophysiology. Nature, 2011. 480(7375): p. 63-8.) was carried out to measure the contextual fear memory of mice. More specifically, each mouse was placed in a cage for application of foot shock (FS), and FS was applied to the mouse. On the next day, the mouse was returned to the same cage (familiar condition), and the freeze time was measured (FIG. 1a). In order to investigate the effect of tipifarnib or lonafarnib (which may be hereinafter simply referred to as “active component”), a vehicle (carboxymethyl cellulose) and the active component were orally administered to mice, and FS was applied to each mouse 6 hours later. On the next day, the mouse was returned to the same cage to compare the freeze time. […]
Six hours before FS, lonafarnib (40 mg/kg) or tipifarnib (40 mg/kg) was orally administered to the Tsc2^+/− mice, and contextual fear memory was investigated (FIG. 1a). On the next day, the mice were returned to the box in which the FS was applied, and the freeze time was measured.

[1] = system: GFAP-Cre; Tsc1^fl/fl (GFAP-Tsc1 cKO) mice; assay: Three-chamber test in GFAP-Tsc1 cKO mice (abnormality of social behavior); conditions: single oral administration (40 mg/kg)
Method: By a three-chamber test, social interaction was investigated. This was carried out using an experiment device having three separated chambers between which a mouse can move freely. First, a cage containing a mouse (stranger 1 mouse) was placed in one chamber, and an empty cage was placed in another chamber (FIG. 2a). The subject mouse was placed in the middle chamber, and the length of time when the mouse stayed in each chamber (the chamber staying time in the figure, expressed in (s): seconds) was measured. Subsequently, the mouse (stranger 1 mouse) in the first cage was transferred to the empty cage, and another mouse (stranger 2 mouse) was placed in the cage that became empty (FIG. 2a). Thereafter, the length of time when the subject mouse stayed in the chamber of the first mouse (stranger 1 chamber) and the length of time when the subject mouse stayed in the chamber where the new mouse was staying (stranger 2 chamber) were measured and compared.
These mice were obtained by crossing of GFAP-Cre mice, which show astrocyte-specific Cre expression.
A suspension of 4 mg/ml lonafarnib or tipifarnib (using 1 w/v % CMC, 0.9 w/v % NaCl, and 5 v/v % DMSO as a vehicle) was prepared and orally administered at 40 mg/kg. A solution of 2 mg/ml pentylenetetrazol (PTZ) (using 0.9 w/v % NaCl as a vehicle) was prepared and intraperitoneally administered. […]

[2] = system: mice to which kainic acid was administered during the neonatal period; assay: Three-chamber test in mice given kainic acid in the neonatal period (autism-like abnormality of social behavior); conditions: mice given kainic acid 1.5 mg/kg one week after birth, tested two months later; single administration 40 mg/kg, i.p.
[3] = system: mice to which pentylenetetrazol was administered; assay: Contextual fear discrimination test in pentylenetetrazol-treated mice (epilepsy-induced memory impairment); conditions: mice given pentylenetetrazol 10 times; single administration 40 mg/kg, i.p.

Compound | freeze time (contextual fear memory) (Tsc2^+/− mice) | staying time in the chamber of the stranger 2 [1] | staying time in the chamber of the stranger 2 (time spent in chamber) [2] | contextual fear memory (freeze time), pentylenetetrazol-induced memory impairment [3]
Cn1cncc1[C@@](N)(c1ccc(Cl)cc1)c1ccc2c(c1)c(-c1cccc(Cl)c1)cc(=O)n2C [tipifarnib, 6-[(R)-amino(4-chlorophenyl)(1-methyl-1H-imidazol-5-yl)methyl]-4-(3-chlorophenyl)-1-methyl-2(1H)-quinolinone] | increases in the freeze behavior |  |  | 
NC(=O)N1CCC(CC(=O)N2CCC([C@H]3c4ncc(Br)cc4CCc4cc(Cl)cc(Br)c43)CC2)CC1 [lonafarnib] | increases in the freeze behavior | significantly longer | significantly longer | pentylenetetrazol-induced memory impairment could also be improved
